Data on five compounds can be found in paper PMC12311725, “Identification of Ginsentide-like Peptides from Cacao Beans with Oxidative Stress Protection” (ACS Omega, 2025).

Where a SMILES comes first, the peptide text is derived from it. Bridges are numbered along the chain shown (N, C = ends). Where no end group is shown, it is not given here. The star is where a group is joined. 5FAM = O=C1OC2(c3ccc(O)cc3Oc3cc(O)ccc32)c2ccc(C(=O)*)cc21; Cam = NC(=O)C*

The subject of one data set is HaCaT keratinocytes. The experiment in a line: Live-cell confocal microscopy of internalization. Format: cell-based, human. The following applies: 1 μM, 37 °C, 1 h, Z-stack confocal fluorescence. The protocol: HaCaT (human keratinocyte) cells were cultured in Dulbecco’s modification of Eagle’s medium (DMEM) supplemented with 10% fetal bovine serum and 100 U/mL penicillin and streptomycin. They were grown in a 5% CO2 humidified incubator at 37 °C
To examine the internalization of FAM-tC1 in living cells, the cells were seeded on an 8-well chamber slide (Ibidi). Prior to incubation with FAM-tC1, the cells were stained with […]. FAM-tC1 was incubated on cells in phenol red-free and serum-free medium for 1 h at 37 °C. The slides were washed gently with PBS three times, and the medium was replaced prior to imaging. The slides were observed by using a Zeiss LSM 980 confocal microscope.
8 Confocal image of fluorescent labeled FAM-tC1 in HaCaT keratinocytes. (A) 1 μM FAM-tC1 was incubated with HaCaT keratinocytes at 37 °C for 1 h, and Z-stack confocal analysis was performed. Green: FAM-tC1; Blue: Nucleus. The red outline indicates the region of interest (ROI) which is presented as a 3D-rendered Z-stack image on the right. (B) Fluorescence intensity line profiles measured across the ROI at three representative z-depths (bottom, middle, and top slice).

Data set [1] is described as follows: Post-translational modification analysis of methionine oxidation (tims-TOF MS/MS). Format: physicochemical. The following applies: native peptide from aqueous extract. The protocol:
The primary sequences of cocotides from Theobroma cacao aqueous extracts were determined by LC-MS/MS sequencing as described previously. The C18-SPE fractionated Theobroma cacao aqueous extracts were redissolved in 20 mM DTT at 37 °C for 1 h followed by S-alkylation with 200 mM iodoacetamide at 37 °C for 1 h. The mixture was desalted with a C18 Zip-tip and subjected to analysis on a trapped ion mobility spectrometer-time-of-flight tandem mass spectrometer (tims-TOF MS/MS). Data analysis was performed using PEAKS Studio (version 11, Bioinformatics Solutions, Waterloo, ON, Canada) with a precursor ion tolerance of 10 ppm and a fragment ion tolerance of 0.05 Da. Carbamidomethylation at Cys was set as a fixed modification. Deamidation of […], oxidation of Met, and acetylation at Lys and N-term were set as variable modification. Peptide sequencing was performed using PEAKS DB protein identification, which integrates database search of an in-house ginsentide-like peptide library derived from Theobroma cacao transcriptome with de novo sequencing.

The next data set deals with pepsin. The experiment in a line: Peptide stability assay with pepsin (RP-HPLC). The data set is classed as in vitro ADME. The following applies: pepsin 50:1 (w/v) in 0.2 M HCl, 37 °C, 6 h; peptide 0.1 M [sic]; RP-HPLC peak area as % of initial. The procedure:
(§1) Stability studies were conducted using purified cocotide tC1 (0.1 M) and S-alkylated tC1 (iodoacetamido) under specific buffer conditions. Pepsin stability was assessed by incubating the samples in a mixture of pepsin at a ratio of 50:1 (w/v) in 0.2 M HCl at 37 °C. For trypsin stability, the samples were treated with trypsin in 0.1 M ammonium bicarbonate buffer (pH 8) at 37 °C. Analysis of stability assays involved collecting samples at various time points, which were then analyzed by reversed-phase high-performance liquid chromatography (RP-HPLC) using a linear gradient of mobile phase A (0.05% trifluoroacetic acid in water) and mobile phase B (0.05% trifluoroacetic acid in acetonitrile) on an Aeris Peptide XB-C18 column (Phenomenex). The stability results were expressed as a percentage of the initial concentration and determined by the peak area of the HPLC profile.
(§2) 7 Proteolytic stability assays of cocotide tC1. Cocotide tC1 was incubated with either pepsin or trypsin at 37 °C for up to 6 h. S-alkylated tC1 was used as the control. At different time points, samples of cocotide tC1 and the control were quantified using reversed-phase high pressure liquid chromatography (RP-HPLC). The relative peak areas of the RP-HPLC profiles were used to quantify the percentage of peptides remaining after incubation with pepsin or trypsin.

Another data set concerns trypsin. Put plainly: Peptide stability assay with trypsin (RP-HPLC). The data set is classed as in vitro ADME. The following applies: trypsin in 0.1 M ammonium bicarbonate buffer pH 8, 37 °C, 6 h; peptide 0.1 M [sic]; RP-HPLC peak area as % of initial. The procedure:
as §1, §2

Data set [2] can be described thus: Ferric Reducing Antioxidant Power (FRAP) assay. The following applies: OxiSelect FRAP Assay Kit. The procedure:
OxiSelect Ferric Reducing Antioxidant Power (FRAP) Assay Kit (Cell Biolabs, USA) was used to measure the antioxidant potential of cocotide tC1. The assay was performed according to the manufacturer’s instructions .

As for `CC[C@H](C)[C@@H]1NC(=O)CNC(=O)[C@H](CCSC)NC(=O)[C@@H]2CCCN2C(=O)[C@H](Cc2ccc(O)cc2)NC(=O)[C@H](CC(C)C)NC(=O)[C@@H]2CSSC[C@@H]3NC(=O)[C@H](Cc4ccccc4)NC(=O)CNC(=O)CNC(=O)[C@H](C)NC(=O)[C@H](CO)NC(=O)[C@H](CC(C)C)NC(=O)[C@@H](NC(=O)[C@@H](N)CCCCNC(=O)c4ccc5c(c4)C(=O)OC54c5ccc(O)cc5Oc5cc(O)ccc54)CSSC[C@@H]4NC(=O)[C@H](CSSC[C@H](NC1=O)C(=O)N[C@@H](Cc1ccc(O)cc1)C(=O)NCC(=O)N[C@@H](CO)C(=O)NCC(=O)N[C@H](C(=O)O)CSSC[C@H](NC(=O)[C@H](CC(N)=O)NC(=O)CNC4=O)C(=O)NCC(=O)N2)NC(=O)[C@H](CC(=O)O)NC(=O)[C@H](CCSC)NC(=O)[C@@H]1CCCN1C(=O)[C@H](CC(N)=O)NC(=O)[C@H](Cc1ccccc1)NC(=O)[C@H](CCSC)NC3=O` [FAM-tC1] (H-K(5FAM)CLSAGGFCMFNPMDCCGNCGCLYPMGICYGSGC-OH; disulfide 2-17, 9-22, 16-29, 20-34), the “fluorescent signal in the nucleus” value with HaCaT keratinocytes is on record as “no fluorescent signals were detected in the nucleus”. Also, the “cell penetration (internalization)” value in the data set on HaCaT keratinocytes (serum-free medium) was “readily penetrates the cells”.

With “CLSAGGFCMFIPMDCCGNCGCLFPMGFCYGSGC (disulfide (positions not given here)) [cocotide tC2, ginsentide-like cysteine-rich peptide found in T. cacao aqueous extract]”, the methionine oxidation pattern entry in data set [1] is “Met9 was more prone to oxidation than Met13”.

As for “CLSAGGFCVFNPMDCCGNCGCLYPMGICYGSGC (disulfide (positions not given here)) [cocotide tC7, ginsentide-like cysteine-rich peptide found in T. cacao aqueous extract]”, the methionine oxidation pattern entry in data set [1] was “minimal oxidation”.

As for `CC[C@H](C)[C@H](NC(=O)CNC(=O)[C@H](CCSC)NC(=O)[C@@H]1CCCN1C(=O)[C@H](Cc1ccc(O)cc1)NC(=O)[C@H](CC(C)C)NC(=O)[C@H](CSCC(N)=O)NC(=O)CNC(=O)[C@H](CSCC(N)=O)NC(=O)[C@H](CC(N)=O)NC(=O)CNC(=O)[C@H](CSCC(N)=O)NC(=O)[C@H](CSCC(N)=O)NC(=O)[C@H](CC(=O)O)NC(=O)[C@H](CCSC)NC(=O)[C@@H]1CCCN1C(=O)[C@H](CC(N)=O)NC(=O)[C@H](Cc1ccccc1)NC(=O)[C@H](CCSC)NC(=O)[C@H](CSCC(N)=O)NC(=O)[C@H](Cc1ccccc1)NC(=O)CNC(=O)CNC(=O)[C@H](C)NC(=O)[C@H](CO)NC(=O)[C@H](CC(C)C)NC(=O)[C@@H](N)CSCC(N)=O)C(=O)N[C@@H](CSCC(N)=O)C(=O)N[C@@H](Cc1ccc(O)cc1)C(=O)NCC(=O)N[C@@H](CO)C(=O)NCC(=O)N[C@@H](CSCC(N)=O)C(=O)O` [S-alkylated cocotide tC1, reference compound] (H-C(Cam)LSAGGFC(Cam)MFNPMDC(Cam)C(Cam)GNC(Cam)GC(Cam)LYPMGIC(Cam)YGSGC(Cam)-OH), in the data set on pepsin, the “structural integrity retained (percentage of peptide remaining) after incubation with pepsin” value was “degraded rapidly”. For the same compound, the “structural integrity retained (percentage of peptide remaining) after incubation with trypsin” value with trypsin is listed as “degraded rapidly”.

In the case of `O=C1O[C@H]([C@@H](O)CO)C(O)=C1O` [ascorbic acid, reference compound], in data set [2], the FRAP value was found to be 0.36 Fe^2+ μM/μM.
